Laboratory results taken from patent publication US4564619A, “Carbostyril derivative” (Otsuka Pharmaceutical Co., Ltd., priority 1982, dated 1986).

Assays:
[1] = system: collagen-induced aggregation in rabbit platelets; assay: Inhibition of collagen-induced platelet aggregation in rabbit platelet rich plasma; format: cell-based; conditions: Oryctolagus cuniculus, read-out: Inhibition rate of collagen-induced aggregation; for inhibition at 100 µM (stock): Concentration of the test compound solution 10^-4 mole; for inhibition at 10 µM (stock): Concentration of the test compound solution 10^-5 mole
Summary of the method: (§1)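 Citrated rabbit PRP adjusted to 600,000 platelets/μl with PPP, preincubated with test compound 1 min at 37° C, then challenged with ADP (solution prepared at 7.5×10^-5 M) or collagen (solution at 200 μg/ml). Aggregation followed by light transmittance; % inhibition relative to control aggregation rate.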

[2] = Change of blood pressure, intravenous administration, anesthetized dog; format: in vivo; set-up: unit not given here; conditions: femoral artery
Summary of the method: (§2)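 Pentobarbital-anesthetized (30 mg/kg i.v.), heparinized, thoracotomized dogs of either sex, 8-13 kg, under forced breathing; compound given via femoral vein. Coronary sinus outflow measured by electromagnetic flowmeter in an extracorporeal venous circuit to the carotid; blood pressure recorded from femoral artery.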

coronary artery = assay: Increased amount of the blood flow in coronary artery, intravenous administration, anesthetized dog; format: in vivo
Summary of the method: as §2

[3] = system: ADP-induced aggregation in rabbit platelets; assay: Inhibition of ADP-induced platelet aggregation in rabbit platelet rich plasma; format: cell-based; conditions: Oryctolagus cuniculus, read-out: Inhibition rate of ADP-induced aggregation; for inhibition at 100 µM (stock): Concentration of the test compound solution 10^-4 mole; for inhibition at 10 µM (stock): Concentration of the test compound solution 10^-5 mole
Summary of the method: as §1

Row | Structure (SMILES) | inhibition at 100 µM (stock) [1] [%] | inhibition at 10 µM (stock) [1] [%] | Change of blood pressure ([2]; 3 micrograms/kg) | Change of blood pressure ([2]; 10 micrograms/kg) | Change of blood pressure ([2]; 30 micrograms/kg) | Change of blood pressure ([2]; 100 micrograms/kg) | Change of blood pressure ([2]; 300 micrograms/kg) | Increased amount of the blood flow in coronary artery (coronary artery; 10 micrograms/kg) [mL/min] | Increased amount of the blood flow in coronary artery (coronary artery; 30 micrograms/kg) [mL/min] | Increased amount of the blood flow in coronary artery (coronary artery; 100 micrograms/kg) [mL/min] | Increased amount of the blood flow in coronary artery (coronary artery; 300 micrograms/kg) [mL/min] | inhibition at 100 µM (stock) [3] [%] | inhibition at 10 µM (stock) [3] [%] | Increased amount of the blood flow in coronary artery (coronary artery; 3 micrograms/kg) [mL/min] | Increased amount of the blood flow in coronary artery (coronary artery; 1000 micrograms/kg) [mL/min]
1 | COC(=O)C1=C(C)NC(C)=C(C(=O)OCCCOc2ccc3c(c2)NC(=O)CC3)C1c1cccc([N+](=O)[O-])c1 (stereo not shown) [Compound 6, 7-{3-[2,6-Dimethyl-5-methoxycarbonyl-4-(3-nitrophenyl)-1,4-dihydropyridin-3-carboxy]-propoxy}-3,4-dihydrocarbostyril] | 19 | 3 | -3 | -5 | -15 | -32 | -44 | 3 | 25 | 58 | 64 | 15 | 6 |  | 
2 | COC(=O)C1=C(C)NC(C)=C(C(=O)OCCCOc2ccc(O)c3c2CCC(=O)N3)C1c1cccc([N+](=O)[O-])c1 (stereo not shown) [Compound 7, 5-{3-[2,6-Dimethyl-5-methoxycarbonyl-4-(3-nitrophenyl)-1,4-dihydropyridin-3-carboxy]-propoxy}-8-hydroxy-3,4-dihydrocarbostyril] | 15 | 3 |  | -2 | -4 | -9 | -14 |  | 1 | 15 | 47 | 14 | 3 |  | 
3 | COC(=O)C1=C(C)NC(C)=C(C(=O)OCCCOc2ccc3[nH]c(=O)ccc3c2)C1c1cccc([N+](=O)[O-])c1 (stereo not shown) [Compound 8, 6-{3-[2,6-Dimethyl-5-methoxycarbonyl-4-(3-nitrophenyl)-1,4-dihydropyridin-3-carboxy]-propoxy}carbostyril] | 99 | 27 |  |  | -3 | -16 | -33 | 1 | 2 | 12 | 56 | 76 | 10 |  | 
4 | COC(=O)C1=C(C)NC(C)=C(C(=O)OCCCOc2cccc3c2NC(=O)CC3)C1c1cccc([N+](=O)[O-])c1 (stereo not shown) [Compound 9, 8-{3-[2,6-Dimethyl-5-methoxycarbonyl-4-(3-nitrophenyl)-1,4-dihydropyridin-3-carboxy]-propoxy}-3,4-dihydrocarbostyril] | 16 | 2 | -14 | -28 | -36 | -41 | -36 | 17 | 47 | 66 | 81 | 12 | 7 | 4 | 
5 | COC(=O)C1=C(C)NC(C)=C(C(=O)OCCOc2ccc3[nH]c(=O)ccc3c2)C1c1cccc([N+](=O)[O-])c1 (stereo not shown) [Compound 10, 6-{2-[2,6-Dimethyl-5-methoxycarbonyl-4-(3-nitrophenyl)-1,4-dihydropyridin-3-carboxy]-ethoxy}carbostyril] | 100 | 50 |  | -5 | -9 | -13 | -34 | 2 | 5 | 23 | 43 | 100 | 27 |  | 
6 | COC(=O)C1=C(C)NC(C)=C(C(=O)OCCN(C(=O)CCCOc2ccc3[nH]c(=O)ccc3c2)C2CCCCC2)C1c1cccc([N+](=O)[O-])c1 (stereo not shown) [Compound 31, N--{2-[1,4-Dihydro-2,6-dimethyl-5-methoxycarbonyl-4-(3-nitrophenyl)pyridin-3-carboxy]ethyl}-N--cyclohexyl-4-(6-carbostyriloxy)butyramide] | 100 | 100 |  | -1 | -4 | -8 | -23 |  |  | 6 | 32 | 100 | 84 |  | 61
7 | COC(=O)C1=C(C)NC(C)=C(C(=O)OCCN(C(=O)CCCOc2ccc3c(c2)CCC(=O)N3)C2CCCCC2)C1c1ccccc1[N+](=O)[O-] (stereo not shown) [Compound 32, N--{2-[1,4-Dihydro-2,6-dimethyl-5-methoxycarbonyl-4-(2-nitrophenyl)pyridin-3-carboxy]ethyl}-N--cyclohexyl-4-(3,4-dihydro-6-carbostyriloxy)-butyramide] | 100 | 34 |  | -1 | -6 | -8 | -19 |  |  | 16 | 55 | 98 | 25 |  | 97
8 | COC(=O)C1=C(C)NC(C)=C(C(=O)OCCN(C(=O)CCCOc2ccc3[nH]c(=O)ccc3c2)C2CCCCC2)C1c1ccccc1 (stereo not shown) [Compound 35, N--[2-(1,4-Dihydro-2,6-dimethyl-5-methoxycarbonyl-4-phenylpyridin-3-carboxy)ethyl]-N--cyclohexyl-4-(6-carbostyriloxy)butyramide] | 100 | 100 |  | -4 | -6 | -9 | -26 |  |  | 5 | 17 | 100 | 89 |  | 47
